From patent publication US11542240B2, “STK19 inhibitors for treatment of cancer” (TRUSTEES OF BOSTON UNIVERSITY, priority 2018, dated 2023)

Tests used:
Assay in all cases: biochemical
Type in all cases: binding
[1] = target: panel of 468 diverse kinases (Homo sapiens, UniProt Q96L34); conditions: MARK4; 1000 nM; read-out: Percent Control
[2] = target: panel of 468 diverse kinases (Homo sapiens, UniProt Q8N752); conditions: CSNKIV1L; 1000 nM; read-out: Percent Control
[3] = target: panel of 468 diverse kinases (Homo sapiens, UniProt Q32MK0); conditions: MLCK; 1000 nM; read-out: Percent Control
[4] = target: panel of 468 diverse kinases (Homo sapiens, UniProt P35916); conditions: FLT4; 1000 nM; read-out: Percent Control
[5] = target: panel of 468 diverse kinases (Homo sapiens, UniProt P36888, D835V); conditions: FLT3(D835V); 1000 nM; read-out: Percent Control
[6] = target: panel of 468 diverse kinases (Homo sapiens, UniProt Q99558); conditions: NIK; 1000 nM; read-out: Percent Control
[7] = target: panel of 468 diverse kinases (Homo sapiens, UniProt O75914); conditions: PAK3; 1000 nM; read-out: Percent Control
[8] = target: panel of 468 diverse kinases (Homo sapiens, UniProt P16234); conditions: PDGFRA; 1000 nM; read-out: Percent Control
[9] = target: panel of 468 diverse kinases (Homo sapiens, UniProt Q6ZWH5); conditions: NEK10; 1000 nM; read-out: Percent Control
[10] = target: panel of 468 diverse kinases (Homo sapiens, UniProt Q8TD08); conditions: ERK8; 1000 nM; read-out: Percent Control
[11] = target: panel of 468 diverse kinases (Homo sapiens, UniProt P42336, E542K); conditions: PIK3CA(E542K); 1000 nM; read-out: Percent Control
[12] = target: panel of 468 diverse kinases (Homo sapiens, UniProt Q13131); conditions: AMPK-alpha1; 1000 nM; read-out: Percent Control
[13] = target: panel of 468 diverse kinases (Homo sapiens, UniProt P37023); conditions: ACVRL1; 1000 nM; read-out: Percent Control
[14] = target: panel of 468 diverse kinases (Homo sapiens, UniProt Q16659); conditions: ERK3; 1000 nM; read-out: Percent Control
[15] = target: panel of 468 diverse kinases (Homo sapiens, UniProt Q9BXA7); conditions: TSSK1B; 1000 nM; read-out: Percent Control
[16] = target: panel of 468 diverse kinases (Homo sapiens, UniProt Q9BX84); conditions: TRPM6; 1000 nM; read-out: Percent Control
[17] = target: panel of 468 diverse kinases (Homo sapiens, UniProt P45983); conditions: JNK1; 1000 nM; read-out: Percent Control
[18] = target: panel of 468 diverse kinases (Homo sapiens, UniProt Q00536); conditions: PCTK1; 1000 nM; read-out: Percent Control
[19] = target: panel of 468 diverse kinases (Homo sapiens, UniProt Q9BWU1); conditions: CDK11; 1000 nM; read-out: Percent Control
[20] = target: panel of 468 diverse kinases (Homo sapiens, UniProt P19784); conditions: CSNK2A2; 1000 nM; read-out: Percent Control
[21] = target: panel of 468 diverse kinases (Homo sapiens, UniProt P68400); conditions: CSNK2A1; 1000 nM; read-out: Percent Control
[22] = target: panel of 468 diverse kinases (Homo sapiens, UniProt O15197); conditions: EPHB6; 1000 nM; read-out: Percent Control
[23] = target: panel of 468 diverse kinases (Homo sapiens, UniProt O00238); conditions: BMPR1B; 1000 nM; read-out: Percent Control
[24] = target: panel of 468 diverse kinases (Homo sapiens, UniProt P22694); conditions: PKAC-beta; 1000 nM; read-out: Percent Control
[25] = target: panel of 468 diverse kinases (Homo sapiens, UniProt Q13873); conditions: BMPR2; 1000 nM; read-out: Percent Control
[26] = target: panel of 468 diverse kinases (Homo sapiens, UniProt Q96RR4); conditions: CAMKK2; 1000 nM; read-out: Percent Control
[27] = target: panel of 468 diverse kinases (Homo sapiens, UniProt Q9HCP0); conditions: CSNK1G1; 1000 nM; read-out: Percent Control
[28] = target: panel of 468 diverse kinases (Homo sapiens, UniProt P42336, I800L); conditions: PIK3CA(I800L); 1000 nM; read-out: Percent Control
[29] = target: panel of 468 diverse kinases (Homo sapiens, UniProt O15264); conditions: p38-delta; 1000 nM; read-out: Percent Control
[30] = target: panel of 468 diverse kinases (Homo sapiens, UniProt P22455); conditions: FGFR4; 1000 nM; read-out: Percent Control
[31] = target: panel of 468 diverse kinases (Homo sapiens, UniProt P10721, D816H); conditions: KIT(D816H); 1000 nM; read-out: Percent Control
panel of 468 diverse kinases (Homo sapiens, UniProt P10721, D816H), sequence (P10721 26-976 D816H limits assumed): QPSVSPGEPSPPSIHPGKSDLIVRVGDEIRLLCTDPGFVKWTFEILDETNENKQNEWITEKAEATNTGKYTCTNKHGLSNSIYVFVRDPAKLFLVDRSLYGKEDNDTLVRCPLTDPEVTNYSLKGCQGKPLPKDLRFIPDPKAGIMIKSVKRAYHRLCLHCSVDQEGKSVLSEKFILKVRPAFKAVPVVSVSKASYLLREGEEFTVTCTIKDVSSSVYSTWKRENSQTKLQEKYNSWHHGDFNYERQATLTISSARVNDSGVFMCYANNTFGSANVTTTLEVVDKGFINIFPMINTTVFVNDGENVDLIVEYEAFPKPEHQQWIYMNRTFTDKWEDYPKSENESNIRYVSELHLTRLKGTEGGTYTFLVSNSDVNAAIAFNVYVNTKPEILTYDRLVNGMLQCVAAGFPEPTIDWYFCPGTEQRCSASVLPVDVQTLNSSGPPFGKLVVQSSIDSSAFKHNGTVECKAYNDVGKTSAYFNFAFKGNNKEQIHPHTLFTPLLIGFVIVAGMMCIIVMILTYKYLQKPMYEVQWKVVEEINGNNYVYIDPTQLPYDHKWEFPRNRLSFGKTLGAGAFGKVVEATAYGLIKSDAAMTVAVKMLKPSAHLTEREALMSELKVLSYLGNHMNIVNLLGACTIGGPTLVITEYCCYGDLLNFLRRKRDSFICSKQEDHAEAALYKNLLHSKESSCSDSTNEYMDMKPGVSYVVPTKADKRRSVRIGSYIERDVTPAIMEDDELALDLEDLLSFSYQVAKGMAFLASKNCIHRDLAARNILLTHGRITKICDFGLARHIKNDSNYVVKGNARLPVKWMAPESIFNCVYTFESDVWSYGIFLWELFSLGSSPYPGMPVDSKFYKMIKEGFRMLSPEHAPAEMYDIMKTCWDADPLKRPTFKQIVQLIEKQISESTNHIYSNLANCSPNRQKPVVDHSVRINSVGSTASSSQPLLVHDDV

panel of 468 diverse kinases (Homo sapiens, UniProt P16234), sequence (P16234 24-1089 limits assumed): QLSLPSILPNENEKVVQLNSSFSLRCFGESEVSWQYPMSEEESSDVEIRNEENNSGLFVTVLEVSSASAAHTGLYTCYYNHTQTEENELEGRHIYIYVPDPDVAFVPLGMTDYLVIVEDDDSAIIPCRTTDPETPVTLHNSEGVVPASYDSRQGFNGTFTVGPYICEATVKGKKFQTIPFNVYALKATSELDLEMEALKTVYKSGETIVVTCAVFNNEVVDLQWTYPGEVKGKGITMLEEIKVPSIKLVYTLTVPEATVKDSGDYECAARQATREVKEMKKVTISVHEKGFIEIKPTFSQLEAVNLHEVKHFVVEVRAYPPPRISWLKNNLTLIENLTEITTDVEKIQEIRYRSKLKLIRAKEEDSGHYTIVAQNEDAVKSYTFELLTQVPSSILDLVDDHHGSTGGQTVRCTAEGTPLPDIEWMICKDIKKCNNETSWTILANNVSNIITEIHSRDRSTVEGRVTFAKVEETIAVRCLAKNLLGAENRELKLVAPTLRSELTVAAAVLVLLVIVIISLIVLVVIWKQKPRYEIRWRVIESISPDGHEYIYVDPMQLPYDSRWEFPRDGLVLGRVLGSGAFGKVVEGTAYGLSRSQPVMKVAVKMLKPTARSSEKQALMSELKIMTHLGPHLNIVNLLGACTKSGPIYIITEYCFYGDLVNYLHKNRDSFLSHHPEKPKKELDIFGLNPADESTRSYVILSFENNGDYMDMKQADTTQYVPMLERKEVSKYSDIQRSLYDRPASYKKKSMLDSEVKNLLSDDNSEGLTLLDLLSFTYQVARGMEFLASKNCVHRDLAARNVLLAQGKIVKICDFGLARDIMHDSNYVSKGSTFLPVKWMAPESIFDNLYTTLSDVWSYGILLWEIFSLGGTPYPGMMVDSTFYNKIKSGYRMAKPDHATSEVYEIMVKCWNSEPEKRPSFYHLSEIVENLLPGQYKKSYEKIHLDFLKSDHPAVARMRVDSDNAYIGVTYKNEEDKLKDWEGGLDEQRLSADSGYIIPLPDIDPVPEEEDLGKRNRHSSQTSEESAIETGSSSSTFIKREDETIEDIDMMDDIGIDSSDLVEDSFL
panel of 468 diverse kinases (Homo sapiens, UniProt P37023), sequence (P37023 22-503 limits assumed): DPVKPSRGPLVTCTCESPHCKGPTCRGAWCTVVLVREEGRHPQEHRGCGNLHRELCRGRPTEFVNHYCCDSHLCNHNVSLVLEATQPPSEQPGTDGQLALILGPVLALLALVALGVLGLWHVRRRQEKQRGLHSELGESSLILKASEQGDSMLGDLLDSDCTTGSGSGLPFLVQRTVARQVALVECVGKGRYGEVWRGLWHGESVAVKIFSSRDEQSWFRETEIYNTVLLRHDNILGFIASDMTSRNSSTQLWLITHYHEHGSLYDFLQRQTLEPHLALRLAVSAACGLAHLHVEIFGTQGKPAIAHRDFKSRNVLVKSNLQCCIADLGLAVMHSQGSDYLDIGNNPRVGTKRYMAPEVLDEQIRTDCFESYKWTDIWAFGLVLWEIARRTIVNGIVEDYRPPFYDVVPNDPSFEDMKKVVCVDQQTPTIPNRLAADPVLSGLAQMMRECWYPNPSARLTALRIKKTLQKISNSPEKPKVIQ
panel of 468 diverse kinases (Homo sapiens, UniProt O15197), sequence (O15197 32-1021 limits assumed): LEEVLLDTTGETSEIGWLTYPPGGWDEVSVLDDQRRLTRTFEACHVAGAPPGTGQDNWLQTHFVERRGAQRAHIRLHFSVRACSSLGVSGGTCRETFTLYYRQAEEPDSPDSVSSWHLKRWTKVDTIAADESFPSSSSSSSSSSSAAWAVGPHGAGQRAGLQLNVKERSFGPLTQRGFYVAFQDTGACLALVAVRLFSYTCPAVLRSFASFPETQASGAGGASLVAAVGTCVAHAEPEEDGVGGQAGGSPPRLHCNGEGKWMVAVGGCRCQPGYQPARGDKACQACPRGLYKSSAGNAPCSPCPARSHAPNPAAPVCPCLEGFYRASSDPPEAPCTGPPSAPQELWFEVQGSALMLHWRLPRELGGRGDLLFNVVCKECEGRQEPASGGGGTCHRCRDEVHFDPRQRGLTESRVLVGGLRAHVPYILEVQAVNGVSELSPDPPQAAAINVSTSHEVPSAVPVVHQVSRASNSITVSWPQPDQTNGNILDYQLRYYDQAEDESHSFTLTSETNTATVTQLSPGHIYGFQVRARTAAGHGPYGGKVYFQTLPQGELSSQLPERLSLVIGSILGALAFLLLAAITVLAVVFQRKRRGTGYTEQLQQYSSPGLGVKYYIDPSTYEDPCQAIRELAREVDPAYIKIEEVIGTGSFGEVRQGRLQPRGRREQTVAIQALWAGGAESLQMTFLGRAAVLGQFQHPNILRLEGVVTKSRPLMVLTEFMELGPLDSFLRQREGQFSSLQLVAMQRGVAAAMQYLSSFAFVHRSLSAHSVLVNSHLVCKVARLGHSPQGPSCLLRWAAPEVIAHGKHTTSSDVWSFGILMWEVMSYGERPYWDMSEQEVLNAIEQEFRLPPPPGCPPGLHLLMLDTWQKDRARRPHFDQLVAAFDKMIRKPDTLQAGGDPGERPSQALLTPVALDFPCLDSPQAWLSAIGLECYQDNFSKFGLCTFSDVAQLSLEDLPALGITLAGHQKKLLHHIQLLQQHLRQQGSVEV
panel of 468 diverse kinases (Homo sapiens, UniProt Q96RR4), sequence (Q96RR4 2-588 limits assumed): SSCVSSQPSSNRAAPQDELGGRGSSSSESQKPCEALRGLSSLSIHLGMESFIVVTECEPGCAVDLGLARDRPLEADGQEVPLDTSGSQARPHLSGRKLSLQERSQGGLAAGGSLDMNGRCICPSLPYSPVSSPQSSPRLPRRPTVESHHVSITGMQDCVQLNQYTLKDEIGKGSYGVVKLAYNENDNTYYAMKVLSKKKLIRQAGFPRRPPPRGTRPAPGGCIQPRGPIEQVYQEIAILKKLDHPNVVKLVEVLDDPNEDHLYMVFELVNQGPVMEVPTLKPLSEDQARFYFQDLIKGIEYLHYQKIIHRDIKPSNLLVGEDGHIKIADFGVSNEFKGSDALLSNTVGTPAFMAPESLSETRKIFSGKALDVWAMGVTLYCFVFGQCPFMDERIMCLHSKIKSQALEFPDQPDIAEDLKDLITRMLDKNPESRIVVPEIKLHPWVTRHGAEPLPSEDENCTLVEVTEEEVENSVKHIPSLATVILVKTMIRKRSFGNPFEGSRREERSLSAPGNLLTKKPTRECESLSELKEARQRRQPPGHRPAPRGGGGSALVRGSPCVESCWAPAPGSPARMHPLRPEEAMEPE
panel of 468 diverse kinases (Homo sapiens, UniProt Q13873), sequence (Q13873 27-1038 limits assumed): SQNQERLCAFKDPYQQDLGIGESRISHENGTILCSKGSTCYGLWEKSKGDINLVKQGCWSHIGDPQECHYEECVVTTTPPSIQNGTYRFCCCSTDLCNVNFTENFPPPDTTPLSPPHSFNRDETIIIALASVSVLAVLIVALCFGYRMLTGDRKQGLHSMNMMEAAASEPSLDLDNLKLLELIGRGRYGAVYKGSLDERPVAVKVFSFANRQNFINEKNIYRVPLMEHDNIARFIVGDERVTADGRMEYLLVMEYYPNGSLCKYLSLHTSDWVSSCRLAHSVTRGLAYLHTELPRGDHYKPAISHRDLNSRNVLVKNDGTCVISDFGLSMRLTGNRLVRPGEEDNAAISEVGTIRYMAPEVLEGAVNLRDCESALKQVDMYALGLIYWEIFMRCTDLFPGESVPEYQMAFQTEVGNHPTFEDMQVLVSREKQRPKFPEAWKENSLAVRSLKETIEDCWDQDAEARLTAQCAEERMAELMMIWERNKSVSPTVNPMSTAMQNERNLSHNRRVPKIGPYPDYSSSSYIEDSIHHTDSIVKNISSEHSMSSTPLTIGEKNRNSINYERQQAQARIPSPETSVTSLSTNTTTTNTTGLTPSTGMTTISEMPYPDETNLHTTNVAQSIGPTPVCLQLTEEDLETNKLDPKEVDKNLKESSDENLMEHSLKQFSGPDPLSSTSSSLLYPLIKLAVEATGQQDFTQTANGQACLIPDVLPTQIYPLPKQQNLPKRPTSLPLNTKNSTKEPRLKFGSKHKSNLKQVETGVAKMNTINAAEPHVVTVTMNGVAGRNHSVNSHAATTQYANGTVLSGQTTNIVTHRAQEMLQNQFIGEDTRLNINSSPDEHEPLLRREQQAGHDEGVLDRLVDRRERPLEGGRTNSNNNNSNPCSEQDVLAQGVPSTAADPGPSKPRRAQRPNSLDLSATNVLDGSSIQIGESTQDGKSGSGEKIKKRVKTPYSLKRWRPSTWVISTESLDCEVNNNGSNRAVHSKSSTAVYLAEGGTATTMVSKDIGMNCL

## COc1cc2nc(NC3CC3)nc(NC3CCN(C(C)C)CC3)c2cc1OC [Formula IV]
[1]
  remaining activity at 1 µM: 95%
[2]
  remaining activity at 1 µM: 99%
[3]
  remaining activity at 1 µM: 91%
[4]
  remaining activity at 1 µM: 80%
[5]
  remaining activity at 1 µM: 44%
[6]
  remaining activity at 1 µM: 46%
[7]
  remaining activity at 1 µM: 71%
[8]
  remaining activity at 1 µM: 75%
[9]
  remaining activity at 1 µM: 50%
[10]
  remaining activity at 1 µM: 83%
[11]
  remaining activity at 1 µM: 70%
[12]
  remaining activity at 1 µM: 92%
[13]
  remaining activity at 1 µM: 99%
[14]
  remaining activity at 1 µM: 90%
[15]
  remaining activity at 1 µM: 85%
[16]
  remaining activity at 1 µM: 90%
[17]
  remaining activity at 1 µM: 52%
[18]
  remaining activity at 1 µM: 43%
[19]
  remaining activity at 1 µM: 82%
[20]
  remaining activity at 1 µM: 63%
[21]
  remaining activity at 1 µM: 61%
[22]
  remaining activity at 1 µM: 81%
[23]
  remaining activity at 1 µM: 55%
[24]
  remaining activity at 1 µM: 96%
[25]
  remaining activity at 1 µM: 40%
[26]
  remaining activity at 1 µM: 100%
[27]
  remaining activity at 1 µM: 100%
[28]
  remaining activity at 1 µM: 94%
[29]
  remaining activity at 1 µM: 98%
[30]
  remaining activity at 1 µM: 100%
[31]
  remaining activity at 1 µM: 78%
